From patent US10716749B2, “Methods and compositions for treating a renal disease condition in a subject” (Palo Alto Investors, priority 2005, dated 2020)

Assays:
[1] = test system: Patients with anticipated use of radiocontrast prior to diagnostic coronary catherization; assay: Intrarenal administration of metoprolol to prevent contrast nephropathy; type: in vivo, human; conditions: intrarenal infusion 1 hour prior to the procedure; patients receiving radiocontrast
Method: Patients are prospectively enrolled on the basis of anticipated use of radiocontrast prior to a scheduled diagnostic coronary catherization. Treatment subjects are treated by intrarenal infusion of metoprolol 1 hour prior to the procedure.

[2] = test system: Patients with a clinical diagnosis of hypertension; assay: Intrarenal administration of a renin inhibitor to treat hypertension; type: in vivo, human; conditions: weekly infusions via an intrarenal catheter; control: saline infusions; sphygmomanometer
Method: Patients are enrolled on the basis of a clinical diagnosis of hypertension based on serial systolic and diastolic blood pressure measurements by sphygmomanometer. Treatment subjects are treated by weekly infusions of Aliskiren via an intrarenal catheter.

SMILES | incidence of contrast nephropathy (as indicated by a greater than 25% increase in serum creatinine post-procedure) as compared to control [1] | diastolic blood pressure measurements compared to control [2] | systolic blood pressure measurements compared to control [2]
COCCc1ccc(OCC(O)CNC(C)C)cc1 (stereo not drawn) [metoprolol] | significant reduction | – | –
COCCCOc1cc(C[C@@H](C[C@H](N)[C@@H](O)C[C@H](C(=O)NCC(C)(C)C(N)=O)C(C)C)C(C)C)ccc1OC [Aliskiren] | – | significant reduction | significant reduction
